Test results reported in US20170089887A1, “CONTRACTILITY ASSAY” (Nano3D Biosciences, Inc, priority 2011, published 2017).
Like-named read-outs stand apart in the source and are kept apart here. Bridge positions count the residues as written; N and C are the ends. Square brackets hold non-standard residues; d marks the D form. Peptide text beside a SMILES is read from it. Orn = NCCC[C@H](N)C(=O)O; Mpa = O=C(O)CCS

Key:
preterm labor = details: cited from earlier work; for Onsef of action: clinical dose per Table 1; for Delay in delivery for 48 hrs: clinical treatment of preterm labor
[1] = cited from earlier work
myometrial strips = test: Wire myography of ex vivo myometrial strips in organ bath; parameters: species or system human; details: 1 μM-1 mM
Protocol: Ex vivo tissue was also tested for comparison to the CBiO Assay. Uterine biopsies obtained from cesarean sections were cut into myometrial strips (10×2×2 mm) mounted in an organ chamber system bath (10 mL) containing Kreb's buffer maintained at 37° C. and bubbled with 5% CO2/95% O2 to maintain the pH at 7.4. Eight uterine strips were obtained form each individual biopsy. The strips were equilibrated for 1 h starting from a resting tension of 1 g and spontaneous uterine contractility was stabilized for isometric tension recording. […] Two uterine strips were exposed to each tocolytic drug, thereby conducting duplicate experiments for each drug. […] All tocolytic doses used were based from previous human myometrial contractility studies. […] For the ex vivo tissue contractile activity, myometrial strips were mounted in a myograph organ bath system. […] The contractile inhibitory response was the area change at 5 h for the CBiO Assay, and the AUC for myography (FIG. 7). The contractile inhibitory response (CIR) in this experiment was defined as the percent change in ring image pixels before and after drug exposure. Thus, FIG. 7 reports a change in size rather than a rate. However, rates can be reported if desired.

[2] = tested on: myometrial smooth muscle cells; test: CBiO Assay (contraction of magnetically 3D bioprinted rings); type: cell-based, human
Protocol: We developed an assay, the CBiO Assay (contractility BiO Assay) to mimic uterine contractility in vitro. The basis of this assay is one in which cells are magnetically 3D bioprinted into 3D rings (e.g., 0.125″ outer diameter, 0.0625″ inner diameter) in 384-well plates. After printing, the magnetic field is removed, and these rings contract immediately (<24 h), as cells within the ring contract, rearrange, and compact the ring.
Along with this CBiO assay, a mobile device-based imaging system (n3Dock) was used to image and measure whole plates of rings (FIG. 3). This imaging system is driven by an iPod Touch (Apple Computer, CA) that was programmed to automatically image plates at regular intervals (≧1 s) for the length of the experiment using a freely available app for download (Experimental Assistant, Nano3D Biosciences). Using the n3Dock to image rings is possible given the fine camera resolution of the iPod (5 MP, resolution=250 μm) (Timm, 2013), and the brown color of the ring imparted by the NS that provides contrast against the lightness of the surrounding media. As a result, the iPod captures images of whole plates in a compact dock that fits within most standard incubators. Of course, any smart phone or pad or tablet equipped with a camera could be used herein.
From the same tissue, cells were grown in vitro as monolayer cultures and then harvested. […]

SMILES | Onsef of action (preterm labor) | Delay in delivery for 48 hrs (preterm labor) | Cmax (Peak plasma concentration) ([1]; clinical dose per Table 1) | Onsef of action (preterm labor; as recommended by the manufacturer) | IND/NIF preference ratio (PR) (myometrial strips; Patient 1, AUC) | IND/NIF preference ratio (PR) (myometrial strips; Patient 2, AUC) | IND/NIF preference ratio (PR) ([2]; Patient 1, area change at 5 h) | IND/NIF preference ratio (PR) ([2]; Patient 2, area change at 5 h) | Cmax (Peak plasma concentration) ([1]; clinical dose 50 mg oral, then 25 mg every 6 hrs, as recommended by the manufacturer)
CCOc1ccc(C[C@H]2NC(=O)CCSSC[C@@H](C(=O)N3CCC[C@H]3C(=O)N[C@@H](CCCN)C(=O)NCC(N)=O)NC(=O)[C@H](CC(N)=O)NC(=O)[C@H]([C@@H](C)O)NC(=O)[C@H]([C@@H](C)CC)NC2=O)cc1 [Atosiban] ([Mpa][dY](Et)ITNCP[Orn]G-NH2; disulfide 1-6) | 1 hr^63 | 93%^64 | 442 ng/ml^63 |  |  |  |  |  | 
COc1ccc2c(c1)c(CC(=O)O)c(C)n2C(=O)c1ccc(Cl)cc1 [Indomethacin] |  | 90-94%^58-61 |  | 2 h | 0.48 | 0.92 | 0.75 | 0.97 | 2 µg/mL
